Laboratory results from PubChem BioAssay AID1745844 (Carcinogenic Potency Database (CPDB), 2022).
Several values for one entry are separate records, joined by “and”; a condition that tells them apart may be missing. Identical values can stand only once. Activity calls are given as the source filed them. The rule behind the calls is not given here.

System: rodent lifetime carcinogenesis bioassay, tumor incidence TD50
Assay: carcinogenic potency in animals, long-term in vivo studies, CPDB compilation (AID 1745844)

Compound `c1ccc(C2CO2)cc1` (stereo unspecified) has a TD50 (mouse, strain B6C3F1, females, by gavage, site: forestomach, lesion: several types, types named in the paper, dosed 104 weeks, study length 107 weeks) of 172 mg/kg/day, a TD50 (mouse, strain B6C3F1, females, by gavage, site: forestomach, lesion: squamous-cell carcinoma, dosed 104 weeks, study length 107 weeks) of 505 mg/kg/day and a TD50 (mouse, strain B6C3F1, females, by gavage, site: forestomach, lesion: squamous-cell papilloma, dosed 104 weeks, study length 107 weeks) of 460 mg/kg/day. For the same compound, the TD50 (mouse, strain B6C3F1, females, by gavage, site: liver, lesion: several types, types named in the paper, dosed 104 weeks, study length 107 weeks) was 5960 mg/kg/day, the TD50 (mouse, strain B6C3F1, males, by gavage, site: forestomach, lesion: several types, types named in the paper, dosed 104 weeks, study length 107 weeks) was 90 mg/kg/day and the TD50 (mouse, strain B6C3F1, males, by gavage, site: forestomach, lesion: squamous-cell carcinoma, dosed 104 weeks, study length 107 weeks) was 475 mg/kg/day. The TD50 (mouse, strain B6C3F1, males, by gavage, site: forestomach, lesion: squamous-cell papilloma, dosed 104 weeks, study length 107 weeks) was 215 mg/kg/day, the TD50 (mouse, strain B6C3F1, males, by gavage, site: liver, lesion: several types, types named in the paper, dosed 104 weeks, study length 107 weeks) was 223 mg/kg/day and the TD50 (rat, strain Fischer 344, females, by gavage, site: forestomach, lesion: several types, types named in the paper, dosed 104 weeks, study length 107 weeks) was 42.9 mg/kg/day. The TD50 (rat, strain Fischer 344, females, by gavage, site: forestomach, lesion: squamous-cell carcinoma, dosed 104 weeks, study length 107 weeks) was 114 mg/kg/day, the TD50 (rat, strain Fischer 344, females, by gavage, site: forestomach, lesion: squamous-cell papilloma, dosed 104 weeks, study length 107 weeks) was 217 mg/kg/day and the TD50 (rat, strain Fischer 344, males, by gavage, site: forestomach, lesion: several types, types named in the paper, dosed 104 weeks, study length 107 weeks) was 30.7 mg/kg/day. It also gave a TD50 (rat, strain Fischer 344, males, by gavage, site: forestomach, lesion: squamous-cell carcinoma, dosed 104 weeks, study length 107 weeks) of 81.6 mg/kg/day, a TD50 (rat, strain Fischer 344, males, by gavage, site: forestomach, lesion: squamous-cell papilloma, dosed 104 weeks, study length 107 weeks) of 146 mg/kg/day and a TD50 (rat, strain Fischer 344, males, by gavage, site: liver, lesion: neoplastic nodule, dosed 104 weeks, study length 107 weeks) of 10300 mg/kg/day. For the same compound, the TD50 (rat, strain Sprague-Dawley, females, by gavage, site: any site (literature study), lesion: malignant tumor, dosed 52 weeks, study length 156 weeks) was 166 mg/kg/day, the TD50 (rat, strain Sprague-Dawley, females, by gavage, site: any site (literature study), lesion: several types, types named in the paper, dosed 52 weeks, study length 156 weeks) was 164 mg/kg/day and the TD50 (rat, strain Sprague-Dawley, females, by gavage, site: forestomach, lesion: benign tumor, dosed 52 weeks, study length 156 weeks) was 503 mg/kg/day. The TD50 (rat, strain Sprague-Dawley, females, by gavage, site: forestomach, lesion: several types, types named in the paper, dosed 52 weeks, study length 156 weeks) was 96.5 mg/kg/day, the TD50 (rat, strain Sprague-Dawley, females, by gavage, site: forestomach, lesion: squamous-cell carcinoma, in situ, dosed 52 weeks, study length 156 weeks) was 129 mg/kg/day and the TD50 (rat, strain Sprague-Dawley, females, by gavage, site: forestomach, lesion: squamous-cell carcinoma, invasive, dosed 52 weeks, study length 156 weeks) was 301 mg/kg/day. It also gave a TD50 (rat, strain Sprague-Dawley, females, by gavage, site: forestomach, lesion: squamous-cell carcinoma, dosed 52 weeks, study length 156 weeks) of 102 mg/kg/day, a TD50 (rat, strain Sprague-Dawley, males, by gavage, site: any site (literature study), lesion: malignant tumor, dosed 52 weeks, study length 156 weeks) of 189 mg/kg/day and a TD50 (rat, strain Sprague-Dawley, males, by gavage, site: any site (literature study), lesion: several types, types named in the paper, dosed 52 weeks, study length 156 weeks) of 191 mg/kg/day. For the same compound, the TD50 (rat, strain Sprague-Dawley, males, by gavage, site: forestomach, lesion: benign tumor, dosed 52 weeks, study length 156 weeks) was 354 mg/kg/day, the TD50 (rat, strain Sprague-Dawley, males, by gavage, site: forestomach, lesion: several types, types named in the paper, dosed 52 weeks, study length 156 weeks) was 99.6 mg/kg/day and the TD50 (rat, strain Sprague-Dawley, males, by gavage, site: forestomach, lesion: squamous-cell carcinoma, in situ, dosed 52 weeks, study length 156 weeks) was 140 mg/kg/day. The TD50 (rat, strain Sprague-Dawley, males, by gavage, site: forestomach, lesion: squamous-cell carcinoma, invasive, dosed 52 weeks, study length 156 weeks) was 267 mg/kg/day and the TD50 (rat, strain Sprague-Dawley, males, by gavage, site: forestomach, lesion: squamous-cell carcinoma, dosed 52 weeks, study length 156 weeks) was 63 mg/kg/day.
For `CCOC(=O)C1OC1(C)c1ccccc1` (stereo unspecified), the TD50 (rat, strain Wistar, females, in feed, site: any site (literature study), lesion: benign tumor, dosed 104 weeks, study length 104 weeks) was 253 mg/kg/day (inactive), the TD50 (rat, strain Wistar, females, in feed, site: any site (literature study), lesion: malignant tumor, dosed 104 weeks, study length 104 weeks) was 2230 mg/kg/day (inactive) and the TD50 (rat, strain Wistar, females, in feed, site: liver, lesion: hemangioendothelioma, dosed 104 weeks, study length 104 weeks) was 9360 mg/kg/day (inactive). For the same compound, the TD50 (rat, strain Wistar, females, in feed, site: pituitary gland, lesion: adenoma, dosed 104 weeks, study length 104 weeks) was 331 mg/kg/day (inactive), the TD50 (rat, strain Wistar, males, in feed, site: any site (literature study), lesion: benign tumor, dosed 104 weeks, study length 104 weeks) was 1150 mg/kg/day (inactive) and the TD50 (rat, strain Wistar, males, in feed, site: any site (literature study), lesion: malignant tumor, dosed 104 weeks, study length 104 weeks) was 4110 mg/kg/day (inactive). The carcinogen call (rat, strain Wistar, males, in feed, site: liver, lesion: one or several types, types not named, dosed 104 weeks, study length 104 weeks) was “negative (inactive)” and the TD50 (rat, strain Wistar, males, in feed, site: testis, lesion: interstitial-cell tumor, dosed 104 weeks, study length 104 weeks) was 1150 mg/kg/day (inactive).
With `CN(C)c1ccc(C(=N)c2ccc(N(C)C)cc2)cc1` the TD50 (mouse, strain CBA, females, in feed, site: liver, lesion: hepatoma, dosed 52 weeks, study length 99 weeks) was 67.7 mg/kg/day, the TD50 (mouse, strain CBA, males, in feed, site: liver, lesion: hepatoma, dosed 52 weeks, study length 79 weeks) was 77.5 mg/kg/day and the TD50 (mouse, strain albino, females, in feed, site: liver, lesion: hepatoma, dosed 52 weeks, study length 79 weeks) was 94.3 mg/kg/day. For the same compound, the TD50 (mouse, strain albino, males, in feed, site: liver, lesion: hepatoma, dosed 52 weeks, study length 84 weeks) was 39.2 mg/kg/day and the TD50 (rat, strain Wilmslow Wistar, males, in feed, site: liver, lesion: hepatoma, dosed 87 weeks, study length 125 weeks) was 11 mg/kg/day.
`CCOc1ccccc1C(N)=O` showed a TD50 (mouse, strain B6C3F1, females, in feed, site: liver, lesion: several types, types named in the paper, dosed 96 weeks, study length 100 weeks) of 3310 mg/kg/day and a TD50 (mouse, strain B6C3F1, males, in feed, site: liver, lesion: several types, types named in the paper, dosed 96 weeks, study length 100 weeks) of 513 mg/kg/day.
For `O=[N+]([O-])c1cccc2cccnc12`, the TD50 (rat, strain Fischer 344, females, in feed, site: forestomach, lesion: squamous-cell carcinoma, dosed 104 weeks, study length 104 weeks) was 32.8 mg/kg/day, the TD50 (rat, strain Fischer 344, females, in feed, site: forestomach, lesion: squamous-cell papilloma, dosed 104 weeks, study length 104 weeks) was 9.55 mg/kg/day and the carcinogen call (rat, strain Fischer 344, females, in feed, site: liver, lesion: hyperplastic nodule, dosed 104 weeks, study length 104 weeks) was “negative (inactive)”. The TD50 (rat, strain Fischer 344, males, in feed, site: forestomach, lesion: squamous-cell carcinoma, dosed 104 weeks, study length 104 weeks) was 24.9 mg/kg/day, the TD50 (rat, strain Fischer 344, males, in feed, site: forestomach, lesion: squamous-cell papilloma, dosed 104 weeks, study length 104 weeks) was 10.1 mg/kg/day and the carcinogen call (rat, strain Fischer 344, males, in feed, site: liver, lesion: hyperplastic nodule, dosed 104 weeks, study length 104 weeks) was “negative (inactive)”.
`C1CCNCC1` was tested, and the TD50 (rat, strain MRC, females, in drinking water, site: any site (literature study), lesion: several types, types named in the paper, dosed 75 weeks, study length 104 weeks) was 63.3 mg/kg/day.
With `CN[C@H]1CC[C@@H](c2ccc(Cl)c(Cl)c2)c2ccccc21` the TD50 (mouse, strain Charles River CD1, females, in feed, site: lung, lesion: alveolar/bronchiolar adenoma, dosed 104 weeks, study length 104 weeks) was 247 mg/kg/day (inactive), the TD50 (mouse, strain Charles River CD1, males, in feed, site: liver, lesion: hepatocellular adenoma, dosed 104 weeks, study length 104 weeks) was 147 mg/kg/day and the TD50 (mouse, strain Charles River CD1, males, in feed, site: liver, lesion: hepatocellular carcinoma, dosed 104 weeks, study length 104 weeks) was 425 mg/kg/day. The TD50 (rat, strain Long-Evans, females, in feed, site: thyroid gland, lesion: follicular-cell adenoma, dosed 104 weeks, study length 104 weeks) was 352 mg/kg/day (inactive).
For `CN(N=O)C(=O)c1ccccc1`, the TD50 (rat, strain MRC-Wistar, females, in drinking water, site: any site (literature study), lesion: several types, types named in the paper, dosed 52 weeks, study length 130 weeks) was 11.2 mg/kg/day, the carcinogen call (rat, strain MRC-Wistar, females, in drinking water, site: liver, lesion: one or several types, types not named, dosed 52 weeks, study length 130 weeks) was “negative (inactive)” and the TD50 (rat, strain MRC-Wistar, males, in drinking water, site: any site (literature study), lesion: several types, types named in the paper, dosed 52 weeks, study length 130 weeks) was 2.49 mg/kg/day. For the same compound, the TD50 (rat, strain MRC-Wistar, males, in drinking water, site: forestomach, lesion: several types, types named in the paper, dosed 52 weeks, study length 130 weeks) was 3.23 mg/kg/day, the TD50 (rat, strain MRC-Wistar, males, in drinking water, site: forestomach, lesion: squamous-cell carcinoma, dosed 52 weeks, study length 130 weeks) was 9.66 mg/kg/day and the TD50 (rat, strain MRC-Wistar, males, in drinking water, site: forestomach, lesion: squamous-cell papilloma, dosed 52 weeks, study length 130 weeks) was 7.73 mg/kg/day. For the same compound, the carcinogen call (rat, strain MRC-Wistar, males, in drinking water, site: liver, lesion: one or several types, types not named, dosed 52 weeks, study length 130 weeks) was “negative (inactive)”.
`c1ccc2c(c1)ccc1cc3c(ccc4ccccc43)cc12` showed a TD50 (mouse, strain DBA/2, males, in drinking water, site: lung, lesion: alveolar-cell carcinoma, dosed 60 weeks, study length 60 weeks) of 5.88 mg/kg/day.
For `CC(=O)[O][Sn]([c]1ccccc1)([c]1ccccc1)[c]1ccccc1`, the TD50 (mouse, strain B6AKF1, females, oral dosing, site: any site (literature study), lesion: several types, types named in the paper, dosed 76 weeks, study length 76 weeks) was 437 mg/kg/day (inactive), the carcinogen call (mouse, strain B6AKF1, females, oral dosing, site: liver, lesion: hepatoma, dosed 76 weeks, study length 76 weeks) was “negative (inactive)” and the TD50 (mouse, strain B6AKF1, females, oral dosing, site: lung, lesion: adenoma, dosed 76 weeks, study length 76 weeks) was 964 mg/kg/day (inactive). The TD50 (mouse, strain B6AKF1, males, oral dosing, site: any site (literature study), lesion: several types, types named in the paper, dosed 76 weeks, study length 76 weeks) was 307 mg/kg/day (inactive), the TD50 (mouse, strain B6AKF1, males, oral dosing, site: liver, lesion: hepatoma, dosed 76 weeks, study length 76 weeks) was 241 mg/kg/day (inactive) and the carcinogen call (mouse, strain B6AKF1, males, oral dosing, site: lung, lesion: adenoma, dosed 76 weeks, study length 76 weeks) was “negative (inactive)”. The TD50 (mouse, strain B6C3F1, females, oral dosing, site: any site (literature study), lesion: several types, types named in the paper, dosed 76 weeks, study length 76 weeks) was 284 mg/kg/day (inactive), the TD50 (mouse, strain B6C3F1, females, oral dosing, site: liver, lesion: hepatoma, dosed 76 weeks, study length 76 weeks) was 909 mg/kg/day (inactive) and the TD50 (mouse, strain B6C3F1, females, oral dosing, site: lung, lesion: adenoma, dosed 76 weeks, study length 76 weeks) was 440 mg/kg/day (inactive). The TD50 (mouse, strain B6C3F1, males, oral dosing, site: any site (literature study), lesion: several types, types named in the paper, dosed 76 weeks, study length 76 weeks) was 117 mg/kg/day (inactive), the TD50 (mouse, strain B6C3F1, males, oral dosing, site: liver, lesion: hepatoma, dosed 76 weeks, study length 76 weeks) was 407 mg/kg/day (inactive) and the TD50 (mouse, strain B6C3F1, males, oral dosing, site: lung, lesion: adenoma, dosed 76 weeks, study length 76 weeks) was 262 mg/kg/day (inactive).
`OCC(O)CO` was tested, and the TD50 (rat, strain Long-Evans, both sexes, in feed, site: any site (literature study), lesion: several types, types named in the paper, dosed 105 weeks, study length 105 weeks) was 38300 mg/kg/day (inactive) and 12300 mg/kg/day (inactive).
